Target: T1, CFTR (Homo sapiens, UniProt P13569, DEL508-508)
T1 construct: endogenous in cells; host or cells: primary human bronchial epithelial cells from CF subjects (F508del/MF-HBE), differentiated at air-liquid interface
Experiment: HBE2 assay: Ussing chamber assay of CFTR-mediated short-circuit currents
Type: cell-based
Conditions: 3 μM corrector; F508del/MF-HBE cells; with 44 nM potentiator, 18-24 hours, 20% human serum
Procedure: Ussing Chamber Assay of CFTR-Mediated Short-Circuit Currents
After four days the apical media was removed, and the cells were grown at an air liquid interface for >14 days prior to use.
To isolate the CFTR-mediated short-circuit (ISC) current, F508del/MF-HBE grown on Costar® Snapwell™ cell culture inserts were mounted in an Ussing chamber and the transepithelial ISC was measured under voltage-clamp recording conditions (Vhold=0 mV) at 37° C. […] The CFTR-mediated ISC (μA/cm^2) for each condition was determined from the peak forskolin response to the steady-state current following inhibition.
Identification of Corrector Compounds
The activity of the CFTR corrector compounds on the CFTR-mediated ISC was determined in Ussing chamber studies as described above.

T1 sequence (P13569 with tags, fused parts or gaps DEL508-508): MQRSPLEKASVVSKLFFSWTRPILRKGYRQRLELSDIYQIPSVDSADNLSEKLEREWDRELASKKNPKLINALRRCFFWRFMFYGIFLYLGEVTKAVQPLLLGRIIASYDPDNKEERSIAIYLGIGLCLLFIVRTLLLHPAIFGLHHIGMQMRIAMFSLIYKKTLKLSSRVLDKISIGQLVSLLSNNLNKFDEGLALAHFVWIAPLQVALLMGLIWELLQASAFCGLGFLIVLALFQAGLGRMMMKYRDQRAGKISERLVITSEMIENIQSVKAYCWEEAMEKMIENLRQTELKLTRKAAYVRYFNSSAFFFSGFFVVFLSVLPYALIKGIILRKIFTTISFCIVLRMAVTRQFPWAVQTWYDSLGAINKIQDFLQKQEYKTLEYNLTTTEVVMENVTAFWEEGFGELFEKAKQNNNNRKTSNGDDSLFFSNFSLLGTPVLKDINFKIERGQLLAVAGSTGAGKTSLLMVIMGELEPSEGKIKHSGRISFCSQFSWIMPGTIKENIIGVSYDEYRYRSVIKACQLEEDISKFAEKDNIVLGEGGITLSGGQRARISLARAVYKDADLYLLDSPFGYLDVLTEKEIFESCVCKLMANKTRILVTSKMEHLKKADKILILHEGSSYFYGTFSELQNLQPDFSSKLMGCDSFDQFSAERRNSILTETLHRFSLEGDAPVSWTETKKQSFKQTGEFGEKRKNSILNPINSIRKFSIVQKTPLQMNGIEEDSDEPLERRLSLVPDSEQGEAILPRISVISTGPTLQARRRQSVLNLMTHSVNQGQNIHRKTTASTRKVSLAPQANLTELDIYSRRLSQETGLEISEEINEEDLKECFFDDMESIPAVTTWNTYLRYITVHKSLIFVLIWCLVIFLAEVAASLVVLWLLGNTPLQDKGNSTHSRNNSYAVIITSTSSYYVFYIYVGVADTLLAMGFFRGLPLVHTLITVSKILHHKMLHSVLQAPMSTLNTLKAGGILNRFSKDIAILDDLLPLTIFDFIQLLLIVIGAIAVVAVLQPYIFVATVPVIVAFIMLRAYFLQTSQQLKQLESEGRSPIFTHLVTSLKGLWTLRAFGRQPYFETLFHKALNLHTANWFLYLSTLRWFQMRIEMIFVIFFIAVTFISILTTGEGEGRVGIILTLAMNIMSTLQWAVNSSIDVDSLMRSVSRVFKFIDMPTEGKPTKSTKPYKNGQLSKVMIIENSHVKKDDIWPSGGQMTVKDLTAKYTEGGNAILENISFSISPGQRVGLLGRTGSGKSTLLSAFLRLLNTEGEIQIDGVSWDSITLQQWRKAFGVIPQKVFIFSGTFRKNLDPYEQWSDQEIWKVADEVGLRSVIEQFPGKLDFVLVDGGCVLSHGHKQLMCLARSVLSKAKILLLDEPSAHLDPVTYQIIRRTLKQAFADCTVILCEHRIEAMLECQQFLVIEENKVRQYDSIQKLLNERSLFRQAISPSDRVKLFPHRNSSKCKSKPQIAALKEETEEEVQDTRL

Row | Compound | HBE2 Activity at 3 μM (%)
1 | Cc1cccc(C)c1-c1cc2nc(n1)NS(=O)(=O)c1cccc(c1)C(=O)N(Cc1cnc3cc(C(C)C)n(C)c3n1)[C@H](CC1CCCC1)CO2 [Compound 1334, (11R)-11-(Cyclopentylmethyl)-6-(2,6-dimethylphenyl)-12-[(6-isopropyl-5-methyl-pyrrolo[2,3-b]pyrazin-3-yl)methyl]-2,2-dioxo-9-oxa-2λ^6-thia-3,5,12,19-tetrazatricyclo[12.3.1.14,8]nonadeca-1(18),4(19),5,7,14,16-hexaen-13-one] | +++ (+++ is >60+)
2 | Cc1cccc(C)c1-c1cc2nc(n1)NS(=O)(=O)c1cccc(c1)C(=O)N(Cc1cncc(N(C)C3CCC3)n1)[C@]1(CCC(C)(C)C1)CO2 (single isomer, unassigned) [Compound 1326, 12-[[6-[cyclobutyl(methyl)amino]pyrazin-2-yl]methyl]-6-(2,6-dimethylphenyl)-1′,1′-dimethyl-2,2-dioxo-spiro[9-oxa-2λ^6-thia-3,5,12,19-tetrazatricyclo[12.3.1.14,8]nonadeca-1(18),4(19),5,7,14,16-hexaene-11,3′-cyclopentane]-13-one] | +++ (+++ is >60+)
3 | Cc1cccc(C)c1-c1cc2nc(n1)NS(=O)(=O)c1cccc(c1)C(=O)N(Cc1cncc(N(C)CC(C)C)n1)[C@H](CC1CCCCC1)CO2 [Compound 1821] | +++ (+++ is >60+)
4 | Cc1cccc(C)c1-c1cc2nc(n1)NS(=O)(=O)c1cccc(c1)C(=O)N(Cc1cncc(N(C)C(C)C)n1)[C@H](CC1CCCCC1)CO2 [Compound 1825] | +++ (+++ is >60+)
5 | Cc1cccc(C)c1-c1cc2nc(n1)NS(=O)(=O)c1cccc(c1)C(=O)N(Cc1cncc(N(C)CC(C)C)n1)[C@H](CC1(C)CCC1)CO2 [Compound 1774] | +++ (+++ is >60+)
6 | Cc1cccc(C)c1-c1cc2nc(n1)NS(=O)(=O)c1cccc(c1)C(=O)N(Cc1cncc(N(C)C3CC4(CC4)C3)n1)[C@H](CCC(C)C)CO2 [Compound 1796] | +++ (+++ is >60+)
7 | Cc1cccc(C)c1-c1cc2nc(n1)NS(=O)(=O)c1cccc(c1)C(=O)N(Cc1cncc(N(C)C(C)C)n1)[C@H](CCC(C)C)CO2 [Compound 1771] | +++ (+++ is >60+)
8 | Cc1cccc(C)c1-c1cc2nc(n1)NS(=O)(=O)c1cccc(c1)C(=O)N(Cc1cncc(N3CCC[C@H]4CC[C@H]43)n1)[C@H](CCC(C)C)CO2 (stereo in doubt) [Compound 1746] | +++ (+++ is >60+)
9 | Cc1cccc(C)c1-c1cc2nc(n1)NS(=O)(=O)c1cccc(c1)C(=O)N(Cc1cncc(N3CC[C@H]3C)n1)[C@H](CCC(C)(C)C)CO2 [Compound 1726] | +++ (+++ is >60+)
10 | Cc1cccc(C)c1-c1cc2nc(n1)NS(=O)(=O)c1cccc(c1)C(=O)N(Cc1cncc(N(C)CC(C)(C)C)n1)[C@H](CCC(C)C)CO2 [Compound 1795] | +++ (+++ is >60+)
11 | Cc1cccc(C)c1-c1cc2nc(n1)NS(=O)(=O)c1cccc(c1)C(=O)N(Cc1cncc(N(C)C3CCC3)n1)[C@]1(CCC(C)(C)C1)CO2 (single isomer, unassigned) [Compound 1325, 12-[[6-[cyclobutyl(methyl)amino]pyrazin-2-yl]methyl]-6-(2,6-dimethylphenyl)-1′,1′-dimethyl-2,2-dioxo-spiro[9-oxa-2λ^6-thia-3,5,12,19-tetrazatricyclo[12.3.1.14,8]nonadeca-1(18),4(19),5,7,14,16-hexaene-11,3′-cyclopentane]-13-one] | +++ (+++ is >60+)
12 | CCN(C)c1cncc(CN2C(=O)c3cccc(c3)S(=O)(=O)Nc3nc(cc(-c4c(C)cccc4C)n3)OC[C@H]2CCC(C)(C)C)n1 [Compound 1807] | +++ (+++ is >60+)

More lines, now with the values ahead:

Row | HBE2 Activity at 3 μM (%) | Compound
13 | ++ (++ is 30-60%) | Cc1cccc(C)c1-c1cc2nc(n1)NS(=O)(=O)c1cccc(c1)C(=O)N(Cc1cncc(N(C)C3CCC3)n1)[C@H](C1CC(C)(C)C1)CO2 (stereo in doubt) [Compound 1895]
14 | +++ (+++ is >60+) | CCC(C)(C)C[C@@H]1COc2cc(-c3c(C)cccc3C)nc(n2)NS(=O)(=O)c2cccc(c2)C(=O)N1Cc1cncc(N2CCCC[C@H]2C)n1 [Compound 1863]
15 | +++ (+++ is >60+) | Cc1cccc(C)c1-c1cc2nc(n1)NS(=O)(=O)c1cccc(c1)C(=O)N(Cc1cnc(C)c(N3CC[C@H]3C)n1)[C@H](CC(C)(C)C)CO2 [Compound 1833]
16 | +++ (+++ is >60+) | COC[C@H]1CCCCN1c1cncc(CN2C(=O)c3cccc(c3)S(=O)(=O)Nc3nc(cc(-c4c(C)cccc4C)n3)OC[C@H]2CCC(C)(C)C)n1 [Compound 1857]
17 | +++ (+++ is >60+) | Cc1cccc(C)c1-c1cc2nc(n1)NS(=O)(=O)c1cccc(n1)C(=O)N(Cc1cncc(N(C)C3CCC3)c1)[C@H](CC(C)(C)C)CO2 [Compound 1924]
18 | +++ (+++ is >60+) | Cc1cccc(C)c1-c1cc2nc(n1)NS(=O)(=O)c1cccc(c1)C(=O)N(Cc1cnc3cc(C(C)C)n(C)c3n1)[C@H](C[C@H]1CCCOC1)CO2 (stereo in doubt) [Compound 1932]
19 | +++ (+++ is >60+) | Cc1cccc(C)c1-c1cc2nc(n1)NS(=O)(=O)c1cccc(c1)C(=O)N(Cc1cncc(N3CCC4CCC43)n1)[C@H](COC1CC1)CO2 (stereo in doubt) [Compound 1909]
20 | +++ (+++ is >60+) | Cc1cccc(C)c1-c1cc2nc(n1)NS(=O)(=O)c1cccc(c1)C(=O)N(Cc1cncc(C3CCCCO3)n1)[C@H](CCC(C)(C)C)CO2 (stereo in doubt) [Compound 1880]
21 | +++ (+++ is >60+) | Cc1cccc(C)c1-c1cc2nc(n1)NS(=O)(=O)c1cccc(c1)C(=O)N(Cc1cncc(N3CC[C@@H]3C)n1)[C@H](CC1CCCC1)CO2 (stereo in doubt) [Compound 1843]
22 | +++ (+++ is >60+) | Cc1cccc(C)c1-c1cc2nc(n1)NS(=O)(=O)c1cccc(c1)C(=O)N(Cc1cncc(N3CCC[C@@H]3C)n1)[C@H](COC1CC1)CO2 (stereo in doubt) [Compound 1892]

Same assay, conditions: 3 μM; F508del/MF-HBE cells; with 44 nM potentiator; 18-24 hours; 20% human serum

Row | HBE2 Activity at 3 μM (%) | Compound
23 | +++ (+++ is >60+) | Cc1cccc(C)c1-c1cc2nc(n1)NS(=O)(=O)c1cccc(c1)C(=O)N(Cc1nccc(N3CC[C@H]3C)n1)[C@H](CC(C)(C)C)CO2 [Compound 1552]
24 | +++ (+++ is >60+) | COC(=O)N(C)CCN(C)c1cncc(CN2C(=O)c3cccc(c3)S(=O)(=O)Nc3nc(cc(-c4c(C)cccc4C)n3)OC[C@H]2CC(C)(C)C)n1 [Compound 1686]
25 | +++ (+++ is >60+) | CC[C@@H](C)Oc1cnc(CN2C(=O)c3cccc(c3)S(=O)(=O)Nc3nc(cc(-c4c(C)cccc4C)n3)OC[C@H]2CC2(C)CC2)nc1 [Compound 1555]
26 | +++ (+++ is >60+) | Cc1cccc(C)c1-c1cc2nc(n1)NS(=O)(=O)c1cccc(c1)C(=O)N(Cc1cncc(N(C)CCN(C)C(=O)OC(C)(C)C)n1)[C@H](CC(C)(C)C)CO2 [Compound 1648]
27 | +++ (+++ is >60+) | CCc1ccnc(CN2C(=O)c3cccc(c3)S(=O)(=O)Nc3nc(cc(-c4c(C)cccc4C)n3)OC[C@H]2CC(C)(C)C)n1 [Compound 1302, (11R)-6-(2,6-Dimethylphenyl)-11-(2,2-dimethylpropyl)-12-[(4-ethylpyrimidin-2-yl)methyl]-2,2-dioxo-9-oxa-2λ^6-thia-3,5,12,19-tetrazatricyclo[12.3.1.14,8]nonadeca-1(18),4,6,8(19),14,16-hexaen-13-one]
28 | +++ (+++ is >60+) | Cc1cccc(C)c1-c1cc2nc(n1)NS(=O)(=O)c1cccc(c1)C(=O)N(Cc1cccc(N3CCC[C@H]3C)n1)[C@H](CC1(C)CC1)CO2 [Compound 1569]
29 | +++ (+++ is >60+) | Cc1cccc(C)c1-c1cc2nc(n1)NS(=O)(=O)c1cccc(c1)C(=O)N(Cc1cncc(N(C)C3CCC3)n1)[C@H](CC1CC1)CO2 [Compound 1670]
30 | +++ (+++ is >60+) | CCOc1cnc(CN2C(=O)c3cccc(c3)S(=O)(=O)Nc3nc(cc(-c4c(C)cccc4C)n3)OC[C@H]2CCC2CC2)nc1 [Compound 1596]
31 | +++ (+++ is >60+) | Cc1cccc(C)c1-c1cc2nc(n1)NS(=O)(=O)c1cccc(c1)C(=O)N(Cc1cccc(N3CCC[C@@]3(C)CO)n1)[C@H](CC(C)(C)C)CO2 (stereo in doubt) [Compound 1585]
32 | +++ (+++ is >60+) | Cc1cccc(C)c1-c1cc2nc(n1)NS(=O)(=O)c1cccc(c1)C(=O)N(Cc1ncc(N3CCC(C)(C)CC3)cn1)[C@H](CCC1CC1)CO2 [Compound 1311, (11R)-11-(2-Cyclopropylethyl)-6-(2,6-dimethylphenyl)-12-[[5-(4,4-dimethyl-1-piperidyl)pyrimidin-2-yl]methyl]-2,2-dioxo-9-oxa-2^6-thia-3,5,12,19-tetrazatricyclo[12.3.1.14,8]nonadeca-1(18),4(19),5,7,14,16-hexaen-13-one]
33 | +++ (+++ is >60+) | Cc1cccc(C)c1-c1cc2nc(n1)NS(=O)(=O)c1cccc(c1)C(=O)N(Cc1ncc(OC(C)C)cn1)[C@H]([C@H](C)C1CC1)CO2 (stereo in doubt) [Compound 1558]
34 | +++ (+++ is >60+) | Cc1cccc(C)c1-c1cc2nc(n1)NS(=O)(=O)c1cccc(c1)C(=O)N(Cc1nc(N(C)C3CCC3)cnc1C)[C@H](CC(C)(C)C)CO2 [Compound 1678]

Same assay, conditions: F508del/MF-HBE cells; corrector at a range of concentrations with 44 nM potentiator, 18-24 hours, 20% human serum

Row | EC50 [µM] | Compound
35 | < 1 | Cc1cccc(C)c1-c1cc2nc(n1)NS(=O)(=O)c1cccc(c1)C(=O)N(Cc1cncc(N3CC[C@H]3C)n1)[C@H](CCC(C)(C)C)CO2 [Compound 1726]

Same assay, conditions: F508del/MF-HBE cells; with 44 nM potentiator; 18-24 hours; 20% human serum

Row | EC50 [µM] | Compound
36 | < 1 | Cc1cccc(C)c1-c1cc2nc(n1)NS(=O)(=O)c1cccc(c1)C(=O)N(Cc1cncc(N(C)C3CCC3)n1)[C@H](CC1CC1)CO2 [Compound 1670]

Same assay, conditions: F508del/MF-HBE cells; with 44 nM potentiator; 18-24 hours; 20% human serum; read-out: HBE2 Max activity (%)

Row | Emax [%] | Compound
37 | > 60 | Cc1cccc(C)c1-c1cc2nc(n1)NS(=O)(=O)c1cccc(c1)C(=O)N(Cc1cncc(N(C)C3CCC3)n1)[C@H](CC1CC1)CO2 [Compound 1670]
38 | > 60 | Cc1cccc(C)c1-c1cc2nc(n1)NS(=O)(=O)c1cccc(c1)C(=O)N(Cc1cncc(N3CC[C@H]3C)n1)[C@H](CCC(C)(C)C)CO2 [Compound 1726]

Source: patent US20240150377A1, “MODULATORS OF CYSTIC FIBROSIS TRANSMEMBRANE CONDUCTANCE REGULATOR” (VERTEX PHARMACEUTICALS INCORPORATED, priority 2020, published 2024)
